Experiments:
[1] = tested on: db/db mice challenged with high fat diet (HF), ESRD model; assay: Kidney function of HF-fed db/db mice (24 h urinary albumin, urine output, serum creatinine); assay type: in vivo, mouse
Excerpt: (§1) Male db/db (BKS.Cg-m+/+Lepr^db/J), age and sex matched db/+ mice were acquired from Jackson Laboratories at age of 10 weeks and housed 4/cage or less. Animals were habitat for 2 weeks in a temperature- and humidity-controlled facility with a 12:12-h light-dark cycle, fed ad libitum with RD (7012 Teklad LM-485, Harlan Laboratories) and had free access to water.
(§2) The mice were challenged with HF (60.3% calories from fat, TD.06414, Harlan Laboratories) starting at 12 weeks of age as depicted in FIG. 1A. The HF challenge was divided into two phases: the first phase lasted 2 weeks followed by a 4-week RD feeding. The second phase of HF feeding followed the 4-week RD interval and continued to the end of the experiments (5 weeks). At the beginning of the second HF feeding, db/db mice were randomly divided into 2 groups and intraperitoneally injected with either Saline (vehicle, db/db-HF-S) or 17-DMAG (6.5 μg/Kg bodyweight, db/db-HF-D). The animal protocols were approved by the Institutional Animal Care and Use Committee (0707-001), UT Health Science Center at San Antonio.
Urine collection and other physical parameters were measured following the schedule in FIG. 1A. 24 h urine samples were collected from individual mice and urinary albumin concentration was determined using a murine albumin enzyme-linked immunosorbent assay (Albuwell M Kit; Exocell, Philadelphia, Pa.). Serum creatinine concentrations were determined by the Creatinine Companion kit (Exocell).

hsp90β1 [2] = target: T1, hsp90β1 (Mus musculus, UniProt P08113); assay: Western blot of hsp90β1 in kidney homogenate and isolated kidney mitochondria; assay type: in vivo; conditions: db/db-HF-D vs db/db-HF-S, daily injection
T1 construct: We measured the effect of daily 17-DMAG injection on hsp90β1 levels in the kidney of db/db-HF mice; from tissue; host or cells: kidney homogenate and isolated kidney mitochondria of HF-fed db/db mice
Description: (§3) Western blot or immunochemistry was performed with polyclonal (pAb) and/or monoclonal (mAb) primary antibodies to detect hsp90β1 and 3-NT levels as previously described. The primary antibodies used in western blots were as follows: mAb anti-3-NT (1:1000, clone 1A6, Millipore); rabbit pAb anti-3-NT (1:1000, Millipore); pAb anti-GRP94 (1:1000, Santa Cruz Biotechnology), mAb anti-Complex 1 (1:2000) and mAb anti-α-tubulin (1:1000). For the immunochemistry staining with mouse antibody, a specific procedure was performed as previously described to eliminate the direct interaction between antigen and secondary antibody.

[3] = tested on: peroxynitrite generation in kidney mitochondria; assay: Linoleic acid-induced peroxynitrite generation in kidney mitochondria; assay type: in vivo, mouse; conditions: db/db-HF-D; did not reach statistical significance; FIG. 4F
Description: (§4) Kidney mitochondria were prepared from db/+ or db/db mice and LA-induced [Ca^2+]m and peroxynitrite were assessed as previously described.

[4] = tested on: HF-fed db/db mice with ESRD; assay: Kaplan-Meyer survival analysis of HF-fed mice; assay type: in vivo, mouse
Excerpt: as §2
Results presented as mean±S.E and Student's t-test was used to evaluate the differences between two groups. Kaplan-Meyer survival analysis was performed using the log-rank statistic to test for a significant difference among the survival curves. Differences were considered statistically significant at P<0.05.

[5] = tested on: kidney glomeruli and tubules of HF-fed db/db mice; assay: Kidney histopathology (HE, PAS, Masson's trichrome) of HF-fed mice; assay type: in vivo, mouse
Excerpt: as §1, §2
Formalin-fixed, paraffin-embedded kidney sections were stained with haematoxylin and eosin (HE), periodic acid-Schiff (PAS), or Masson's trichrome and analyzed to evaluate kidney damages in a blinded manner. The area of glomerular PAS staining was measured by image analysis using Image-Pro Plus 4.5 (Media Cybernetics, Silverspring, Md.). A semi-quantitative assessment was performed in HE stained slides to evaluate the extent of tubular damage and graded from 1 to 5 as follows: 1: vacuolation of cytoplasm in <20% of tubules; 2: vacuoles in 20% to 40% of tubules; 3: vacuoles in 40% to 60% tubules with minimal distortion of tubular structures; 4: vacuoles in 60% to 80% of tubules with large and marked distortion of tubular profiles, pyknotic nuclei, patches of tubular atrophy and tubular degeneration; and 5: >80% of tubules with severe vacuolation, or tubular atrophy and degeneration. The fractal collagen volume was assessed by point counter grid using ImageJ (NIH) program to quantify the blue stain in the trichrome-stained sections.

[6] = tested on: polyunsaturated fatty acid-induced mitochondrial Ca2+ efflux (PIMCE); conditions: applicant's previous studies, basis of the dose; cited from earlier work
hsp90β1 [7] = target: hsp90β1 (Homo sapiens, UniProt P14625); conditions: prolonged treatment of cells; cited from earlier work
[8] = tested on: 3-nitrotyrosine (3-NT) in kidney; assay: 3-NT levels in kidney by western blot and immunochemistry; assay type: in vivo, mouse; conditions: db/db-HF-D vs db/db-HF-S
Description: as §3

[9] = tested on: LA-induced [Ca2+]m efflux in kidney mitochondria; assay: Linoleic acid-induced [Ca2+]m efflux in kidney mitochondria; assay type: in vivo, mouse
Description: as §4

[10] = db/db-HF-D vs db/db-HF-S, FIG. 2G/2H

T1 sequence (P08113 22-802): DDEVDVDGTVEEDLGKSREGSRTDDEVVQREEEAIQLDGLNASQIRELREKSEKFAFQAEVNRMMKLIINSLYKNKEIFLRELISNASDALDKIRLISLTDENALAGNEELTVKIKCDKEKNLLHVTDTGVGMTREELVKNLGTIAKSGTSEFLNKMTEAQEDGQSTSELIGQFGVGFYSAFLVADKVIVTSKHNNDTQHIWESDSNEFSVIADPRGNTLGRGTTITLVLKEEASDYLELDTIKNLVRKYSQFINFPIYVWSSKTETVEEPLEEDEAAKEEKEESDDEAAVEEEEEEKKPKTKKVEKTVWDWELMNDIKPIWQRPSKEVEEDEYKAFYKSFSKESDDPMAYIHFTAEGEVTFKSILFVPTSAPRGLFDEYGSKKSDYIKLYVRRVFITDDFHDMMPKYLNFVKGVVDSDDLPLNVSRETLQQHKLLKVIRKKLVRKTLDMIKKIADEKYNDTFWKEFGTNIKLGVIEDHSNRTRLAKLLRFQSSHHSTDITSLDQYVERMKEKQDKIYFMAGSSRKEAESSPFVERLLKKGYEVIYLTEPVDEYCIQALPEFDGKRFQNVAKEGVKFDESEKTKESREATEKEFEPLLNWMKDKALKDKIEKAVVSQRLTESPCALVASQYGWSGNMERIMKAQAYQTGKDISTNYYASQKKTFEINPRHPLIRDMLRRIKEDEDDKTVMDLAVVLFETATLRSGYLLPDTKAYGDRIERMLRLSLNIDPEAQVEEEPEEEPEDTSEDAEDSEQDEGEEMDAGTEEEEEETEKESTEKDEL
hsp90β1 (Homo sapiens, UniProt P14625), sequence (P14625 22-803): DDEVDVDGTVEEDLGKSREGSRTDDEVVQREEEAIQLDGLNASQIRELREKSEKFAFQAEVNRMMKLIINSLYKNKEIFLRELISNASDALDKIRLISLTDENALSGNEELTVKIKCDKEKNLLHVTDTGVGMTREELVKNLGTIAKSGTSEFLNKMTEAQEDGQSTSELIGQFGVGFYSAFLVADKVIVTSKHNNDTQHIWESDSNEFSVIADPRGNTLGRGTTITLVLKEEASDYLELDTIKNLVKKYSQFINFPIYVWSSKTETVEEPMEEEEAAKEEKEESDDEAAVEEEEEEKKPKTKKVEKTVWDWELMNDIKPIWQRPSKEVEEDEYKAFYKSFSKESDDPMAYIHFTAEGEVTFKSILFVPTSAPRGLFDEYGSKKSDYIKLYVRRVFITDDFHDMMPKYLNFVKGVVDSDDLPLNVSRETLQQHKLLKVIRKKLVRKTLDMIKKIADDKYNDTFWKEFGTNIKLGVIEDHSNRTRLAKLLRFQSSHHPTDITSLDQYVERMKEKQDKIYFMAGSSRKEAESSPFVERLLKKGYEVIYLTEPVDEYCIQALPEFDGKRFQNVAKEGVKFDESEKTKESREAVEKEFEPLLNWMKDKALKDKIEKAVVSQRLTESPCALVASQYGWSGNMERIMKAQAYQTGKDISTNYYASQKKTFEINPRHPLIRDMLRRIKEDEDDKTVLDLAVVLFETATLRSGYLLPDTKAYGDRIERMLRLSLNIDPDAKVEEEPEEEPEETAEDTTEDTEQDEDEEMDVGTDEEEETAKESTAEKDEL

Substance: 17-dimethylaminoethylamino-17-demethoxygeldanamycin [17-DMAG]
- 24 h urine output ([1]; db/db-HF-D (6.5 μg/kg i.p. daily) vs db/db-HF-S, from 17th day of second HF feeding, FIG. 1E): significantly preserved
- 24 h urinary albumin excretion (albuminuria) ([1]; db/db-HF-D (6.5 μg/kg i.p. daily, second HF challenge) vs db/db-HF-S, FIG. 1D): significantly diminished
- serum creatinine, difference between db/db-HF-D and db/+ groups ([1]; db/db-HF-D, 6.5 μg/kg i.p. daily): no significant difference
- serum creatinine compared to db/db-HF-S group ([1]; db/db-HF-D, 6.5 μg/kg i.p. daily, FIG. 1F): significantly lowered
- hsp90β1 levels in kidney homogenates (hsp90β1 [2]; FIG. 4A): similar
- hsp90β1 levels in isolated kidney mitochondria (hsp90β1 [2]; FIG. 4B): significantly reduced
- LA-induced peroxynitrite generation [3]: attenuated
- mortality in HF-fed db/+ mice ([4]; db/+-HF-S and db/+-HF-D groups): no mortality
- survival rate ([4]; db/db-HF-D vs db/db-HF-S, log-rank, FIG. 3): significantly improved
- glomerular and tubular abnormalities in HF-fed db/+ mice ([5]; HF-fed db/+ mice treated with 17-DMAG, FIG. 2B): did not exhibit any glomerular and tubular abnormalities
- tubular vacuolation ([5]; db/db-HF-D group (also in db/db-HF-S)): evidenced
- segmental glomerulosclerosis (HE staining, 100×) ([5]; db/db-HF-D vs db/db-HF-S, FIG. 2C/2D): largely prevented
- tubular atrophy and degeneration (HE staining) ([5]; db/db-HF-D vs db/db-HF-S, FIG. 2E/2F): dramatic protection
- segmental glomerulosclerosis and mesangial matrix expansion (PAS, 200×), glomerular lesions [5, 10]: amiiorated
- tubulointerstitial fibrosis (PAS-stained tubulointerstitium) [5, 10]: largely prevented
- accumulation of tubulointerstitial collagen (Masson's trichrome) ([5]; db/db-HF-D vs db/db-HF-S, FIG. 2I/2J): effectively reduced
- tubular damage (index, morphometric quantification) ([5]; db/db-HF-D vs db/db-HF-S, FIG. 2K): significant alleviation
- mesangial matrix expansion (morphometric quantification) ([5]; db/db-HF-D vs db/db-HF-S, FIG. 2L): significant alleviation
- collagen accumulation (morphometric quantification) ([5]; db/db-HF-D vs db/db-HF-S, FIG. 2M): significant alleviation
- inhibition on PIMCE [6]: maximal inhibition
- toxicity to cells [6]: did not produce apparent toxicity
- degradation and downregulation of hsp90β1 (hsp90β1 [7]): caused degradation and downregulation
- 3-NT in kidney sections by immunohistochemistry ([8]; FIG. 5C-E): effectively reduced
- 3-NT level, bands with MW<50kDa, western blot with polyclonal anti-3-NT antibody ([8]; kidney homogenates, FIG. 5A): significant 3-NT level reduction
- 3-NT levels in proteins <50 kDa, western blot with monoclonal antibody ([8]; kidney homogenates, FIG. 5B): significantly lowered
- rate and amplitude of LA-induced [Ca2+]m signal, difference between db/db-HF-D and db/+ groups ([9]; db/db-HF-D vs db/+): no significant differences
- LA-induced [Ca2+]m efflux in kidney mitochondria ([9]; db/db-HF-D vs db/db-HF-S, FIG. 4C-E): significantly diminished
- rate and amplitude of LA-induced [Ca2+]m responses ([9]; db/db-HF-D vs db/db-HF-S, FIG. 4D, 4E): effectively attenuated

Reference: US20130143855A1, “METHOD TO ALLEVIATE DIABETIC END STAGE RENAL DISEASE” (BOARD OF REGENTS OF THE UNIVERSITY OF TEXAS SYSTEM, priority 2010, published 2013)
